Reference: publication PMC9266460, “KSK-74: Dual Histamine H3 and Sigma-2 Receptor Ligand with Anti-Obesity Potential” (International Journal of Molecular Sciences, 2022)

Assays:
[1] = tested on: peritoneal adipose tissue; assay: Leptin, resistin, IL-6 and MCP-1 levels in adipose tissue (ELISA); format: in vivo, female Wistar rats; conditions: for leptin levels in adipose tissue: vs palatable diet + vehicle unless worded otherwise
Experimental: The frozen peritoneal adipose tissue was weighed, and homogenates were prepared by homogenizing 1 g of tissue in 4 mL of 0.1 M phosphate buffer, pH 7.4, using the IKA-ULTRA-TURRAX T8 homogenizer. The adipose tissue homogenates were then used for biochemical assays.
To determine the levels of leptin, resistin, IL-6, and MCP-1 in adipose tissue, the standard ELISA Kit (Cat. No E0561Ra, Cat. No E0211Ra, Cat. No E0135Ra, Cat. No E0193Ra, Bioassay Technology Laboratory, Shanghai, China) was used. To determine the levels of protein, a standard spectrophotometric test (Cat. No 1-008-B210, Biomaxima S.A. Lublin, Poland) was used.

[2] = biological target: T1, H3 histamine receptor (Homo sapiens, UniProt Q9Y5N1); assay: Intrinsic activity at H3R, LANCE Ultra cAMP assay; format: cell-based
T1 sequence (Q9Y5N1 whole entry): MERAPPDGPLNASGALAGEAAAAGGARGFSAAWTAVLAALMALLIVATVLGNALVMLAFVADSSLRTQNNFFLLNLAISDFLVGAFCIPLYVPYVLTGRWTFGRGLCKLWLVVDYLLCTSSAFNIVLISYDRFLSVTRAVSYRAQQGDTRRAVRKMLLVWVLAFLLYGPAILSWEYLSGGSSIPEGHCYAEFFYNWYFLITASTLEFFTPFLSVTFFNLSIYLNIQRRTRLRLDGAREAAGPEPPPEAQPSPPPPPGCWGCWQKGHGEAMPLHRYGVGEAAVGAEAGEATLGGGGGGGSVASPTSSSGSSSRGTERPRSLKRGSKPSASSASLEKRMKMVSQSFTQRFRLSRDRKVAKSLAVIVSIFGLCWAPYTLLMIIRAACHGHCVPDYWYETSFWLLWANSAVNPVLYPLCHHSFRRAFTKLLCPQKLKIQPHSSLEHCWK
Experimental: (§1) Intrinsic activity studies were performed using two methods, Aequoscreen and LANCE Ultra cAMP assays, according to the manufacturer of the ready-to-use cells with stable expressions of the H3 histamine receptor (Perkin Elmer).
The assay is based on the competition between the europium (Eu) chelate-labeled cAMP tracer and sample cAMP for binding sites on cAMP-specific monoclonal antibodies labeled with the ULight dye.

[3] = biological target: T1, H3 histamine receptor; assay: Intrinsic activity at H3R, Aequoscreen assay; format: cell-based
Experimental: as §1
The Aequoscreen technology uses recombinant cell lines with stable co-expression of apoaequorin and a GPCR as a system to detect activation of the receptor, following the addition of an agonist, via the measurement of light emission. For the measurement, cells (frozen, ready to use) were thawed and resuspended in 10 mL of assay buffer containing 5 μM of coelenterazine h. The cell suspension was then placed in a 10 mL Falcon tube, fixed on a rotating wheel, and incubated overnight at RT° in the dark. Cells were diluted with assay buffer at 5000 cells/20 µL. Agonistic ligands 2 × (50 μL/well), diluted in assay buffer, were prepared in 1/2 area white polystyrene plates, and 50 μL of cell suspension was dispersed on the ligands using the injector. The light emission was recorded for 20 s. Cells were incubated with antagonist for 15 min at RT°. Then, 50 µL of agonist (final concentration equal to 3 × EC80) was injected into the mixture of cells and antagonist and light emission was recorded for 20 s.

[4] = biological target: sigma-2 receptor; design: method as in PMID 34908391; conditions: Figure 1; read-out: σ2R Ki; cited from earlier work
[5] = tested on: rats fed a palatable diet; assay: Model of excessive eating: body weight, calorie intake, fat pads; format: in vivo, female Wistar rats; conditions: for body weight during administration (time course): 10 mg/kg i.p. daily, persisted until the 28th day; for amount of peritoneal fat pads vs palatable diet + vehicle: KSK 10 mg/kg, end of experiment; for amount of peritoneal fat pads vs palatable diet + vehicle / body weight gain vs palatable diet + vehicle: phentermine 7 mg/kg; for calorie intake vs control group fed palatable feed: i.p. 28 days, KSK 10 mg/kg b.w., phentermine 7 mg/kg b.w.; for body weight vs palatable diet + vehicle / body weight gain vs palatable diet + vehicle: i.p. daily 4 weeks; for body weight vs palatable diet + vehicle: 1 mg/kg; for body weight gain vs palatable diet + vehicle: KSK-60/KSK-74 10 mg/kg b.w.
Experimental: Experiments were performed on female Wistar rats with an initial body weight of 140–160 g. The animals were housed in plastic cages (2 rats per cage) at a constant room temperature of 22 ± 2 °C, with a 12:12 h light/dark cycle. Water and food were available ad libitum. The randomly established experimental groups consisted of 6 rats for pharmacological studies and 3 rats for pharmacokinetic studies. All experiments were conducted in accordance with the Guide to the Care and Use of Experimental Animals, and were approved by the Jagiellonian University in Krakow Local Ethics Committee for Experiments on Animals (Permission No: 185/2017, 220/2019 and 223A/2019).
Female rats were randomly divided into several groups (n = 6) and studied for 4 weeks. The groups were as follows: standard diet + vehicle, palatable diet + vehicle, palatable diet + KSK-60 (1 mg/kg), palatable diet + KSK-60 (10 mg/kg), palatable diet + KSK-74 (1 mg/kg), palatable diet + KSK-74 (10 mg/kg), palatable diet + phentermine (7 mg/kg).
The studies for the 1 mg/kg b.w. and 10 mg/kg b.w. doses were performed at different times, so the parameters studied were compared to the respective control groups.
Rats fed a palatable diet had access to a diet consisting of milk chocolate with nuts, cheese, salted peanuts, and 7% condensed milk, and simultaneously to a standard feed (Labofeed B, Morawski Manufacturer Feed, Poland) for 4 weeks. The water was available ad libitum. Animals had access to palatable products, but also to the standard feed. Most importantly, feeding was not in any way forced, as in other models where animals were fed only a high-fat diet, or temporarily deprived of food (binge eating models). In the case of our model, rats decided themselves when, what, and how much to eat. The weight was evaluated daily. Calorie intake was evaluated three times a week. A palatable diet contained 100 g of peanuts—612 kcal; 100 mL of condensed milk—131 kcal; 100 g of milk chocolate—529 kcal; and 100 g of cheese—325 kcal. The standard diet contained 100 g of feed—280 kcal. Standard diet (fats 8%, carbohydrates 67%, proteins 25%) contained 100 g feed—280 kcal.
The palatable control group (palatable diet + vehicle) received vehicle (1% Tween 80 i.p., daily, for 4 weeks), while palatable test groups were injected i.p. with KSK-60 (1 mg or 10 mg/kg i.p, daily, for 4 weeks), KSK-74 (1 mg/kg or 10 mg/kg i.p, daily, for 4 weeks), or phentermine (7 mg/kg i.p., daily, for 4 weeks), respectively.
On the 31st day, 20 min after i.p. administration of heparin (5000 units/rat) and thiopental (70 mg/kg b.w.), animals were sacrificed, and plasma as well as peritoneal fat pads were collected (food was stopped for 6 h prior to organ, tissue, and plasma collection) for further study.

[6] = KSK 10 mg/kg i.p., phentermine 7 mg/kg

Question: Which “IL-6 levels in adipose tissue vs palatable diet + vehicle” value ([1]; 10 mg/kg) does the source give for `CCC(=O)c1ccc(OCCCCCCCCN2CCN(c3ccncc3)CC2)cc1` [KSK-74] here?
Answer: reduced

Question: What about the “MCP-1 level in adipose tissue vs palatable diet + vehicle” value ([1]; 10 mg/kg b.w.) of the same compound?
Answer: decreased the level of MCP-1

Question: What about the “resistin levels in adipose tissue vs palatable diet + vehicle” value [1, 6] of the same compound?
Answer: reduced levels

Question: And the “leptin levels in adipose tissue” value [1, 6]?
Answer: reduced levels

Question: And the IC50 [2]?
Answer: 23.2 ± 3.6 nM

Question: And the IC50 [3]?
Answer: 31.9 ± 0.5 nM

Question: And the Ki [4]?
Answer: 65.9 nM

Question: And the “milk intake vs control group fed palatable feed” value ([5]; 10 mg/kg b.w.)?
Answer: consumed significantly less milk in the first and second weeks

Question: And the “peanuts intake vs control group fed palatable feed” value ([5]; 10 mg/kg b.w.)?
Answer: significantly less peanuts in the fourth week

Question: And the “body weight during administration (time course)” value [5]?
Answer: significant inhibition of body weight gain around the 10th day

Question: And the “amount of peritoneal fat pads vs palatable diet + vehicle” value [5]?
Answer: fewer fat pads

Question: And the “calorie intake vs control group fed palatable feed” value [5]?
Answer: did not significantly influence the amount of calories consumed

Question: What about the “body weight vs palatable diet + vehicle” value [5] of the same compound?
Answer: No differences in body weight

Question: And the “body weight gain vs palatable diet + vehicle” value [5]?
Answer: gained significantly less weight

Question: With `CCC(=O)c1ccc(OCCCCCCN2CCN(c3ccncc3)CC2)cc1` [KSK-60] as the compound, how does the “leptin levels in adipose tissue” value [1, 6] read?
Answer: maintained leptin levels at the same level as rats in the control group fed standard feed

Question: What about the IC50 [2] of the same compound?
Answer: 0.78 ± 0.1 nM

Question: And the IC50 [3]?
Answer: 1.49 ± 0.2 nM

Question: And the Ki [4]?
Answer: 110 nM

Question: And the “body weight during administration (time course)” value [5]?
Answer: significant inhibition of body weight gain around the 10th day

Question: And the “amount of peritoneal fat pads vs palatable diet + vehicle” value [5]?
Answer: fewer peritoneal fat pads

Question: And the “calorie intake vs control group fed palatable feed” value [5]?
Answer: did not significantly influence the amount of calories consumed

Question: And the “body weight vs palatable diet + vehicle” value [5]?
Answer: No differences in body weight

Question: What about the “body weight gain vs palatable diet + vehicle” value [5] of the same compound?
Answer: gained significantly less weight
